# Results published in ChEMBL document CHEMBL4715749, “Synthesis of 17β-N-arylcarbamoylandrost-4-en-3-one derivatives and their anti-proliferative effect on human androgen-sensitive LNCaP cell line” (Eur J Med Chem, 2016).
# Active and inactive are the calls of the source. The rule behind the calls is not given here.
# Assays:
# PC-3 = assay: Growth inhibition of androgen-insensitive human PC3 cells incubated for 48 hrs by sulforhodamine B assay; type: functional
# [1] = Cytotoxicity against Wistar rat PBMC assessed as inhibition of cell growth at 50 uM incubated for 24 hrs by sulforhodamine B assay relative to control; type: tissue-based; settings: for inhibition at 24 h, 50 µM: Wistar, peripheral blood mononuclear cells (PBMC); for Activity: pbmc, 24 h, 50 µM
# LNCaP [2] = assay: Antiproliferative activity against androgen-sensitive human LNCAP cells assessed as inhibition of testosterone-induced cell growth at 50 uM incubated for 48 hrs by sulforhodamine B assay relative to control; type: functional
# LNCaP [3] = assay: Growth inhibition of androgen-sensitive human LNCAP cells incubated for 48 hrs by sulforhodamine B assay; type: functional
# LNCaP [4] = assay: Antiproliferative activity against androgen-sensitive human LNCAP cells assessed as inhibition of cell growth at 50 uM incubated for 48 hrs by sulforhodamine B assay relative to control; type: functional
# LNCaP [5] = assay: Antiproliferative activity against androgen-sensitive human LNCAP cells assessed as inhibition of DHT-induced cell growth at 50 uM incubated for 48 hrs by sulforhodamine B assay relative to control; type: functional
SMILES,GI50 (PC-3),"inhibition at 24 h, 50 µM [1]",inhibition at 50 µM (LNCaP [2]),GI50 (LNCaP [3]),inhibition at 50 µM (LNCaP [4]),inhibition at 50 µM (LNCaP [5]),inhibition (LNCaP [5]),Activity [1]
C[C@]12CC[C@H]3[C@@H](CCC4=CC(=O)CC[C@@]43C)[C@@H]1CC[C@@H]2C(=O)Nc1cc(C(F)(F)F)cc(C(F)(F)F)c1,14.2 µM,9.1%,100%,12.8 µM,100%,100%,–,–
C[C@]12CC[C@H]3[C@@H](CCC4=CC(=O)CC[C@@]43C)[C@@H]1CC[C@@H]2C(=O)Nc1ccc(F)cc1,–,4.1%,44.3%,–,29.1%,29%,–,–
C[C@]12CC[C@H]3[C@@H](CCC4=CC(=O)CC[C@@]43C)[C@@H]1CC[C@@H]2C(=O)Nc1nccs1,6.6 µM,16.8%,100%,16 µM,100%,100%,–,–
CC(C)(C)NC(=O)[C@H]1CC[C@H]2[C@@H]3CC[C@H]4NC(=O)C=C[C@]4(C)[C@H]3CC[C@]12C [FINASTERIDE],–,3.7%,21.1%,–,34.6%,–,inactive,–
CC(C)C(=O)Nc1ccc([N+](=O)[O-])c(C(F)(F)F)c1 [FLUTAMIDE],–,–,29.6%,–,-3.4%,25.1%,–,Non-Toxic
CC(=O)N1CCN(c2ccc(OCC3COC(Cn4ccnc4)(c4ccc(Cl)cc4Cl)O3)cc2)CC1 (centres undefined) [KETOCONAZOLE],11.7 µM,–,76%,25 µM,82.7%,68.2%,–,–
C[C@]12CC[C@H]3[C@@H](CCC4=CC(=O)CC[C@@]43C)[C@@H]1CC[C@@H]2C(=O)Nc1ccc(Cl)cc1,–,–,1.6%,–,-6.1%,13.4%,–,Non-Toxic
C[C@]12CC[C@H]3[C@@H](CCC4=CC(=O)CC[C@@]43C)[C@@H]1CC[C@@H]2C(=O)N1CCc2ccccc21,–,–,49.9%,–,69.1%,52.6%,–,Non-Toxic
Cc1ccc(NC(=O)[C@H]2CC[C@H]3[C@@H]4CCC5=CC(=O)CC[C@]5(C)[C@H]4CC[C@]23C)cc1,–,13%,43.3%,–,25.6%,27.5%,–,–
C[C@]12CC[C@H]3[C@@H](CCC4=CC(=O)CC[C@@]43C)[C@@H]1CC[C@@H]2C(=O)Nc1ccccc1,–,8.7%,66.2%,–,40.9%,59.4%,–,–
COc1ccc(NC(=O)[C@H]2CC[C@H]3[C@@H]4CCC5=CC(=O)CC[C@]5(C)[C@H]4CC[C@]23C)cc1,–,7.9%,38.6%,–,48.7%,29.7%,–,–
